Data set [1] deals with L. infantum. Description: L. infantum mouse model of VL. The format is in vivo.
The next data set is described as follows: PMM cytotoxicity assay. It is filed as cell-based. The settings on record: mouse, primary peritoneal mouse macrophages (PMM). An outline of the steps:
(§1)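 PMM (harvested 2 days after 2% potato starch peritoneal stimulation) or MRC5SV2 human lung fibroblasts at 3 × 10^4 cells/mL were exposed to compound for three days at 37 °C, 5% CO2. Viability was read by resazurin fluorescence (λex 550, λem 590 nm) after 4 h, as % growth reduction vs untreated controls.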

Another data set addresses T1, hERG potassium channels (Homo sapiens, UniProt Q12809).
T1 construct: expressed in transfected cells; host or cells: Chinese hamster ovary (CHO) cells
Nature of the data set: hERG inhibition, automated patch-clamp. The note with it: at 30 μM. It is filed as cell-based. Here is the method: An automated patch-clamp method (QPatch HTX) was used by WuXi AppTec, China. Chinese hamster ovary cells expressing hERG potassium channels were incubated at room temperature with test compounds (0.12, 0.37, 1.11, 3.33, 10, and 30 μM, in triplicate) or amitriptyline as a positive control.
On the technique in general: Block of hERG is tested as a sign of cardiac risk.

The next data set in a line: MRC5 cytotoxicity assay. The format is cell-based. The settings on record: human, MRC5SV2 cells (human embryonic lung fibroblasts); Table 5; geometric mean of at least two independent tests. The method in brief: as §1
A short description of data set [2]: Metabolite identification in microsomes. It is filed as in vitro ADME, rat, mouse, dog, human, hamster. Here is the method: Metabolite identification studies were conducted at WuXi AppTec, China. DNDI-6148 was incubated at 10 μM in the presence of Beagle dog and Sprague-Dawley rat liver microsomes (1 mg/mL) for 60 min. Following precipitation with a solution of formic acid and acetonitrile, metabolites were identified by LC-UV-MSn (n = 1–2).

Data set [3] is described as follows: Hepatocyte stability, human. It is filed as in vitro ADME. The settings on record: cryopreserved hepatocytes. Here is the method: Tests were performed by WuXi AppTec, China. Following a viability check of cryopreserved hepatocytes from Sprague-Dawley rat, Beagle dog, or human, test compounds (at 1 μM) or positive controls 7-ethoxycoumarin and 7-hydroxycoumarin (at 3 μM) were incubated at 37 °C, 5% CO2 with hepatocytes in Williams’ Medium E. Following incubation of 15, 30, 60, 90, 120, 180, and 240 min, reactions were stopped by the addition of acetonitrile, the samples were centrifuged, and LC-MS/MS analysis was conducted using tolbutamide as an internal standard.

Data set [4] can be described thus: Human PK and dose prediction by allometric scaling.
A further data set concerns L. donovani. Nature of the data set: L. donovani mouse model of VL. It is filed as in vivo. The procedure:
Female BALB/c mice were infected with 2 × 10^7L. donovani amastigotes/0.2 mL i.v. harvested from the spleen of an infected donor RAG1B6 mouse (LSHTM). After 7 days, the mice were treated with miltefosine or DNDI-6148 for 5 consecutive days. Five days after the final dose, mice were humanely killed, liver and spleens were dissected and weighed, and impression smears were made for the calculation of parasite burden (Stauber equation).[25]

The subject of data set [5] is L. infantum. Nature of the data set: Intramacrophage L. infantum assay. It is filed as cell-based. The settings on record: Leishmania infantum. The method in brief: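 Ex vivo splenic amastigotes from infected hamsters used to infect primary macrophages (3 × 10^4 cells/4.5 × 10^5 parasites per well) in RPMI-1640 with 5% inactivated FCS. After 5 days' exposure, Giemsa-stained burdens counted microscopically versus untreated infected (100%) and uninfected (0%) controls; EC50 from 8-point 2-fold dilutions.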

A short description of data set [6]: Liver microsome stability, rat. The format is in vitro ADME. The settings on record: Sprague-Dawley, rat liver microsomes, pH 7.4. The procedure: Tests were performed by WuXi AppTec, China. Test compounds (at 1 μM) or positive controls (testosterone, propafenone, and diclofenac) were incubated at 37 °C with liver microsomes from Balb/c mouse, golden (Syrian) hamster, Sprague-Dawley rat, Beagle dog, or human in the presence of a NADPH regenerating system and phosphate buffer (100 mM, pH 7.4) at 0.4 or 0.8 mg/mL microsomal protein. The samples were removed at time intervals from 0 to 60, 90, or 120 min and immediately mixed with cold methanol supplemented or not with acid (3% formic acid) and centrifuged prior to analysis by LC-MS/MS using tolbutamide or propranolol as internal standards.
(Microsomes from liver hold many membrane-bound enzymes, among them those of drug oxidation.)

Where [7] appears, read: Table 5, geometric mean of at least two independent tests.
Where [8] appears, read: allometric scaling from rat and dog PK data.
Setting [9] is: Table 5, geometric mean of at least two independent tests, read-out: intramacrophage L. infantum amastigote EC50.

Where two headings read alike, the source gives them in different places.

T1 sequence (Q12809 whole entry): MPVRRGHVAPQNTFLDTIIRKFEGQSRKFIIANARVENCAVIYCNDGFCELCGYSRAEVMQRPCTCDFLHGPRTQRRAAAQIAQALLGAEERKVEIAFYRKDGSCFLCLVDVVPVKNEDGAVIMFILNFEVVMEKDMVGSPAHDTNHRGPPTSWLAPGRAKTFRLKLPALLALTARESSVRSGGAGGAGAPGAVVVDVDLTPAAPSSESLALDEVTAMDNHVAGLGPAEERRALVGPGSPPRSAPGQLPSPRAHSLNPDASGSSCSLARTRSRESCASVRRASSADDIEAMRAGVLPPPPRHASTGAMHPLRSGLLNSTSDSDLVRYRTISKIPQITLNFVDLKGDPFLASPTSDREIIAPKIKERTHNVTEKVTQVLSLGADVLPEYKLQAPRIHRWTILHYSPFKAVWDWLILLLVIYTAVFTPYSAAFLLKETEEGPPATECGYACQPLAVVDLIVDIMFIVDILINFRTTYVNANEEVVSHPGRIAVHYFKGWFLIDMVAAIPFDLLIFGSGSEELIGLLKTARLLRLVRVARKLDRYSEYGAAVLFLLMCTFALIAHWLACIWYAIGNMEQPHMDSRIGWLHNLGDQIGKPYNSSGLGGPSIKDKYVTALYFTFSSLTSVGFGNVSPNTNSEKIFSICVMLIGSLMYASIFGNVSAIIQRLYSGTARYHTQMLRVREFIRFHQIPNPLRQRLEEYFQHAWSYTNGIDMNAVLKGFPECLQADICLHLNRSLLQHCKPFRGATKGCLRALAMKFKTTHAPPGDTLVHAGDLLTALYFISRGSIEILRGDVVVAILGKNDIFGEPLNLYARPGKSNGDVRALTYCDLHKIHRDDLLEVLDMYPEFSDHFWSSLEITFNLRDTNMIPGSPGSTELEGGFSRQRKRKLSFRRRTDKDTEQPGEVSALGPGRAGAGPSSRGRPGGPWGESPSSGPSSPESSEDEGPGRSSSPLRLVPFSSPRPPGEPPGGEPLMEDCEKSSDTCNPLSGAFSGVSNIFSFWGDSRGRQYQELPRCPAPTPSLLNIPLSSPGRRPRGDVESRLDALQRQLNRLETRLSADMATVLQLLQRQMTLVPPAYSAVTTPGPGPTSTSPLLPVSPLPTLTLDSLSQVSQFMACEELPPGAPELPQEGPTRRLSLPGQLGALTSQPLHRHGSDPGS

For orientation: EC50 means the midpoint of the concentration-response curve. One may read the CC50 as the concentration at which the toxic effect on the cells reaches its halfway point. Lower therefore signals harm at low concentration. As usually defined, the hepatocyte CLint is the capacity of the preparation to metabolise the compound, expressed as a volume cleared per time. The low end stands for greater metabolic stability, the high end for faster metabolism. One may read the microsomal CLint as the rate of metabolic loss divided by the concentration. Take `Cc1c(C(=O)Nc2ccc3c(c2)B(O)OC3)nnn1-c1ccccn1` [Compound 23, N-(1-Hydroxy-1,3-dihydrobenzo[c][1,2]oxaborol-6-yl)-5-methyl-1-(pyridin-2-yl)-1H-1,2,3-triazole-4-carboxamide]: the “reduction in liver parasite burden following 5 days of p.o. dosing BID, L. infantum” value stood at 96.1% with L. infantum [1] (25 mg/kg BID) and 98.6% in the data set on L. infantum [1] (50 mg/kg BID). The compound also showed an EC50 at 3 days in the data set “PMM cytotoxicity assay” (Table 2, geometric mean of at least three independent assays) of more than 64 µM. The CC50 at 3 days in the data set “PMM cytotoxicity assay” (setting [7]) and in the data set “MRC5 cytotoxicity assay” was more than 64 µM in each case. Moreover, at hERG potassium channels, the hERG inhibition was less than 20%. For the same compound, the reactive metabolite formation result in data set [2] (microsomes, any species) is given as “no evidence of reactive metabolite formation”. In data set [2] (rat microsomes), the “metabolism in rat microsomes” value is “No metabolism was detected”. The hepatocyte CLint at 1 μM in [3] was 0.5 µL/min/1e6 cells. Moreover, in data set [4] (BID dosing in humans), the “predicted efficacious human dose” value was 3 to 20 mg/kg. Moreover, in [4] (setting [8]), the “predicted bioavailability in humans” value is recorded as 40–90%. In addition, the “predicted clearance in humans” value in data set [4] (setting [8]) is 1 to 4 mL/min/kg. Besides, the “reduction in liver parasite burden following 5 days of p.o. dosing BID, L. donovani” value with L. donovani (25 mg/kg BID) turned out to be 97.1%; in the data set with L. donovani (50 mg/kg BID), 99.7%. Further, the EC50 in the data set on L. infantum [5] (Table 2, geometric mean of at least three independent assays, read-out: intramacrophage L. infantum EC50) was 1.8 µM; with L. infantum [5] (setting [9]), 1.8 µM. This compound yielded an intrinsic clearance (microsomal CLint) at 1 μM in data set [6] of less than 11.9 µL/min/mg.
Regarding `Cc1c(-c2ccccn2)coc1C(=O)Nc1ccc2c(c1)B(O)OC2` [Compound 28, N-(1-Hydroxy-1,3-dihydrobenzo[c][1,2]oxaborol-6-yl)-3-methyl-4-(pyridin-2-yl)furan-2-carboxamide], the figures for the CC50 at 72 h in “PMM cytotoxicity assay” (setting [7]) and in “MRC5 cytotoxicity assay” were 49 µM and 18 µM, respectively. This compound also showed a CC50 at 3 days in “PMM cytotoxicity assay” (Table 6, geometric mean of at least two independent tests) of 54 µM. The figures for the “reduction in liver parasite burden following 5 days of p.o. dosing BID, L. donovani” value in the data set on L. donovani (25 mg/kg BID) and in the data set with L. donovani (50 mg/kg BID) were 97.5% and 99.5%, respectively. Further, in the data set with L. infantum [5] (setting [9]), the 50% effective concentration (EC50) is 0.5 µM.

The record behind these values is PMC8591608, “DNDI-6148: A Novel Benzoxaborole Preclinical Candidate for the Treatment of Visceral Leishmaniasis” (Journal of Medicinal Chemistry, 2021).
